# Data as given in patent publication US10844051B2, “Substituted oxazoles for the treatment of cancer” (THE ROYAL INSTITUTION FOR THE ADCANCEMENT OF …, priority 2015, dated 2020).
# What was measured:
# Assay type in all cases: cell-based
# [1] = tested on: interferon signaling pathway in THP-1 cells; test: Western blot, interferon signaling in THP-1 cells; settings: 16 hours
# Procedure: THP1 cells were treated for 16 hours with the indicated concentration (μM) of compounds or DMSO vehicle control. Whole-cell extracts were prepared and subjected to Western blot analysis with the antibodies as indicated.
# human GATA2 = target: T1, human GATA2 (Homo sapiens, UniProt P23769); test: GATA2-dependent reporter assay in IHH cells; settings: GATA-Luc reporter, 48 h
# T1 construct: expressed in transfected cells; host or cells: IHH
# T1 sequence (P23769 1-480): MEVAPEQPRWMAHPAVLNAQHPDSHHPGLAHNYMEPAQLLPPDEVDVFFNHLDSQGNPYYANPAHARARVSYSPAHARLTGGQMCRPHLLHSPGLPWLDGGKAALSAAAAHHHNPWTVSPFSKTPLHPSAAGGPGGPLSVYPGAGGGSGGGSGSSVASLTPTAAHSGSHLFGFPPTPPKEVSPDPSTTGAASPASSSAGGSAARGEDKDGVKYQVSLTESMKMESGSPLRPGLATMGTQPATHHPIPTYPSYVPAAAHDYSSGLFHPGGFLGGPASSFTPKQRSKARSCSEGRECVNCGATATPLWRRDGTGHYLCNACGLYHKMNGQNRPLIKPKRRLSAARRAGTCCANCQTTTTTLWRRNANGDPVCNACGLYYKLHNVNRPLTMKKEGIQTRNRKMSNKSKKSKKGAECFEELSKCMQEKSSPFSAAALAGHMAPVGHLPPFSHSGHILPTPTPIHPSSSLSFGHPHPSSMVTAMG
# Procedure: K7174 is a known GATA2 inhibitor. The IHH cells were transiently transfected with empty vector (for the NT) or human GATA2-expressing plasmid as well as pRL-TK (internal control) and GATA-Luc reporter plasmids. Cells were exposed to DMSO vehicle or compounds for 48 h. Experiments were in triplicate.
# human STING (hSTING) = target: T2, human STING (hSTING) (Homo sapiens, UniProt Q86WV6); test: hSTING ISRE-luc reporter assay in 293T cells; settings: 24 hours
# T2 construct: expressed in transfected cells; host or cells: 293T
# T2 sequence (Q86WV6 whole entry H232R): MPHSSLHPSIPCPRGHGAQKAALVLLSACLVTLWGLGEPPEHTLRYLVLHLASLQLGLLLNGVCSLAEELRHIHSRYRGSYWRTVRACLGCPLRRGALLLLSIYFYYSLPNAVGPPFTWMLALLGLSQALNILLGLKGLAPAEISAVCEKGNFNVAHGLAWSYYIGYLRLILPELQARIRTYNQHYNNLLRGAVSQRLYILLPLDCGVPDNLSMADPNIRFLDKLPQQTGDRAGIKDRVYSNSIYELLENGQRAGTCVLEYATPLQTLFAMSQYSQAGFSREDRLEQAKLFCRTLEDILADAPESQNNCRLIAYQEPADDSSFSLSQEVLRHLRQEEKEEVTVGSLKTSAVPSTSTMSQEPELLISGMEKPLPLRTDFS
# Procedure: ISRE-luc (reporter), pRL-TK (internal control) and hSTING-expressing plasmids were transiently transfected into 293T cells. Cells were exposed to DMSO vehicle control or compounds for 24 hours. Experiments were done in triplicate.
# mouse STING (mSTING) = target: T3, mouse STING (mSTING) (Mus musculus, UniProt Q3TBT3); test: mSTING ISRE-luc reporter assay in 293T cells; settings: 24 hours
# T3 construct: expressed in transfected cells; host or cells: 293T
# T3 sequence (Q3TBT3 1-378): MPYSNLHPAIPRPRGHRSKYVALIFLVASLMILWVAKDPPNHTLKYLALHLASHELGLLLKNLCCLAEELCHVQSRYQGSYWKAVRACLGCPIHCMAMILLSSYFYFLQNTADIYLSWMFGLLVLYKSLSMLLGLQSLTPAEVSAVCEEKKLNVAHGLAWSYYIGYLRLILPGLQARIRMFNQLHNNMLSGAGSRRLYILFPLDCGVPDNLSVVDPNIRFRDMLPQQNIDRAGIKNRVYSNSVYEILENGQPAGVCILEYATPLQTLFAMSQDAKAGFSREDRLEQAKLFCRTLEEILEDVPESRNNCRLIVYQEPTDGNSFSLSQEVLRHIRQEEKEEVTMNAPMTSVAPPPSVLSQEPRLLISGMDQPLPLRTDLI
# Procedure: ISRE-luc (reporter), pRL-TK (internal control) and mSTING-expressing plasmids were transiently transfected into 293T cells. Cells were exposed to DMSO vehicle control or compounds for 24 hours. Experiments were done in triplicate.
# [2] = tested on: phosphorylation of ERK in Panc 10.05 cells; test: Western blot, phosphorylation of ERK in Panc 10.05 cells; settings: 10 μM, 24 hours
# Procedure: C-PARP, cleaved PARP. Panc10.05 cells were exposed to DMSO vehicle or compounds at designated doses for 24 hours.
# Panc10.05 cells were exposed to DMSO vehicle or compounds at designated doses for 24 hours.
# [3] = tested on: phosphorylation of ERK in HCT-116 cells; test: Western blot, phosphorylation of ERK in HCT-116 cells; settings: 10 μM, 24 hours
# Procedure: HCT-116 cells were exposed to DMSO vehicle or compounds at designated doses for 24 hours.
# human GATA3 = target: T4, human GATA3 (Homo sapiens, UniProt P23771); test: GATA3-dependent reporter assay in IHH cells; settings: 48 hours, 10 μM
# T4 construct: expressed in transfected cells; host or cells: IHH
# T4 sequence (P23771 whole entry): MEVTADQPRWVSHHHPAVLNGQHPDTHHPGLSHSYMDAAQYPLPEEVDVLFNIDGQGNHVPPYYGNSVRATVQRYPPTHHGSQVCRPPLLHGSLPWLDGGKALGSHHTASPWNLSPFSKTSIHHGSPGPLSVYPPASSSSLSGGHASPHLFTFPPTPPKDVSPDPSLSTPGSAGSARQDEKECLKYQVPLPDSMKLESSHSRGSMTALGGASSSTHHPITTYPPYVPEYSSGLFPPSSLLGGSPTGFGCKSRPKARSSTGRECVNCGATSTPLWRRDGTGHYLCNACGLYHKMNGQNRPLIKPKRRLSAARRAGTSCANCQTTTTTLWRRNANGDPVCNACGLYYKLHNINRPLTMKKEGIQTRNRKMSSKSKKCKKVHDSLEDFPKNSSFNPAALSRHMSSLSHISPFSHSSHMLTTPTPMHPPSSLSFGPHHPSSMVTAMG
# Procedure: The IHH cells were transiently transfected with empty vector (for the NT) or human GATA3-expressing plasmid as well as pRL-TK (internal control) and GATA-Luc reporter plasmids. Cells were exposed to DMSO vehicle or compounds for 48 hours. Experiments were done in triplicate.
# hSTING and/or mSTING = test: hSTING- or mSTING-dependent ISRE-luc reporter assay in 293T cells; settings: 24 hours
# Procedure: ISRE-luc (reporter), pRL-TK (internal control) and hSTING- or mSTING-expressing plasmids were transiently transfected into 293T cells. Cells were exposed to DMSO vehicle control or compounds for 24 hours. Experiments were done in triplicate.
# ETV1 = target: T5, ETV1 (Homo sapiens, UniProt P50549); test: ETV1-dependent reporter assay in HEK293 cells; settings: 48 hours
# T5 construct: expressed in transfected cells; host or cells: HEK293
# T5 sequence (P50549 1-477): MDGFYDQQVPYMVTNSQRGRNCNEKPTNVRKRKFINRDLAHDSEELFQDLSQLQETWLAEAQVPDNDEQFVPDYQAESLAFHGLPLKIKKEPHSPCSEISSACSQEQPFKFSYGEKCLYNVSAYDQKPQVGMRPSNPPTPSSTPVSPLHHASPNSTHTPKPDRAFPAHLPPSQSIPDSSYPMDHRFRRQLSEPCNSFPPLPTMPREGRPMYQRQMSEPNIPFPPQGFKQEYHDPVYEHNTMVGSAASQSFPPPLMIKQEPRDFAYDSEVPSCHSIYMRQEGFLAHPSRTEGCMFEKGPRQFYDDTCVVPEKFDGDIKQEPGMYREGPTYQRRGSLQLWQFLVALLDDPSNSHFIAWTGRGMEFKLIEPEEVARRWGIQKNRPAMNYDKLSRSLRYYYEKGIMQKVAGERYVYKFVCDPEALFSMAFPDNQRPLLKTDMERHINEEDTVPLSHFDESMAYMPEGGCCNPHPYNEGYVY
# Procedure: (§1) HEK293 cells were transiently transfected with empty vector (for the NT) or ERG-expressing plasmid as well as pRL-TK (internal control) and PUx3-Luc reporter. Cells were then exposed to DMSO vehicle or compounds at designated doses for 48 hours. Experiments were done in triplicate.
# Experiments were done as described above in FIG. 1.1a) except that ERG plasmid was replaced by ETV1 plasmid.
# ERG = target: T6, ERG (Homo sapiens, UniProt P11308); test: ERG-dependent reporter assay in HEK293 cells; set-up: expressed in transfected cells; host or cells: HEK293; settings: PUx3-Luc reporter, 48 hours, designated doses
# T6 sequence (P11308 1-486 isoform P11308-3): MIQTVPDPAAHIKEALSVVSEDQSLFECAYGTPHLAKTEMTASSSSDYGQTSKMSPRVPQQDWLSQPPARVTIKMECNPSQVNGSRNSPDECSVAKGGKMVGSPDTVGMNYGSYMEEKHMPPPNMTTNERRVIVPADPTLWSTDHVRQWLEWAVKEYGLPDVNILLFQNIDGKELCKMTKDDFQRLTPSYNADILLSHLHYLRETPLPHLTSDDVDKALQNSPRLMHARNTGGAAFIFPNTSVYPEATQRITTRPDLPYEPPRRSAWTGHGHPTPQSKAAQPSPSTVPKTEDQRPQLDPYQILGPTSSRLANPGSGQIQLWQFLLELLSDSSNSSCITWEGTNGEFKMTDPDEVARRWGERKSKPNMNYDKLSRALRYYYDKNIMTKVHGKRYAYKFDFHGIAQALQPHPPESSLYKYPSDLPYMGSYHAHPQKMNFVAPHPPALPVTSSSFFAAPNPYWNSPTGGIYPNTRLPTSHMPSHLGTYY
# Procedure: as §1
GATA2 inhibition in GATA2-dependent reporter assay (human GATA2),activation of hSTING in ISRE-luc reporter assay (human STING (hSTING)),activity against GATA3 in GATA3-dependent reporter assay (human GATA3),SMILES,suppression of phosphorylation of ERK (Western blot) [2],further results
GATA2 inhibitors,activate hSTING,,COc1cccc(-c2oc(CCCc3c[nH]c4ccccc34)nc2-c2ccco2)c1 [Compound 840],,activation of interferon signaling pathway (Western blot) [1]: activate interferon signaling pathway
,activate human STING (hSTING),,COc1cccc(-c2nc(CCCc3c[nH]c4ccccc34)oc2-c2cccc(OC)c2)c1 [Compound 640],,activation of mSTING in ISRE-luc reporter assay (mouse STING (mSTING)): activate mouse STING (mSTING)
GATA2 inhibitors,,inactive against GATA3,Oc1cccc(-c2nc(CCc3c[nH]c4ccccc34)oc2-c2cccc(O)c2)c1 [Compound 675],,ETV1 inhibition in ETV1-dependent reporter assay (ETV1): ETV1 inhibitors; ERG inhibition in ERG-dependent reporter assay (ERG): ERG inhibitors

# The remaining lines, values behind:
SMILES,GATA2 inhibition in GATA2-dependent reporter assay (human GATA2),activation of hSTING in ISRE-luc reporter assay (human STING (hSTING)),activity against GATA3 in GATA3-dependent reporter assay (human GATA3),suppression of phosphorylation of ERK (Western blot) [2],further results
FC(F)(F)c1ccc(-c2nc(CCCc3c[nH]c4ccccc34)oc2-c2ccc(C(F)(F)F)cc2)cc1 [Compound 672],,activate human STING (hSTING),,,activation of mSTING in ISRE-luc reporter assay (mouse STING (mSTING)): activate mouse STING (mSTING)
N#CCN(CCc1c[nH]c2ccccc12)Cc1nc(-c2ccccc2)c(-c2ccccc2)[nH]1 [Compound 1187],,,,potently suppressed phosphorylation of ERK,suppression of phosphorylation of ERK (Western blot) [3]: potently suppressed phosphorylation of ERK
c1ccc(-c2nc(CNCCc3c[nH]c4ccccc34)oc2-c2ccccc2)cc1 [Compound 795],GATA2 inhibitors,,inactive against GATA3,,activation of hSTING and/or mSTING in ISRE-luc reporter assay (hSTING and/or mSTING): activate hSTING and/or mSTING
COc1cccc(N2CCN(C(=O)C/C(=C/Cc3ccc(OC)c(F)c3)c3ccccc3)CC2)c1 [Compound 1237],,,,potently suppressed phosphorylation of ERK,suppression of phosphorylation of ERK (Western blot) [3]: potently suppressed phosphorylation of ERK
FC(F)(F)c1cccc(/C=C/c2nc(-c3ccccc3)c(-c3ccccc3)o2)c1 [Compound 693],GATA2 inhibitors,activate hSTING,inactive against GATA3,,
Fc1cccc(-c2nc(CN3CCC(c4noc5ccccc45)CC3)[nH]c2-c2cccc(F)c2)c1 [Compound 1100],,,,potently suppressed phosphorylation of ERK,activation of hSTING and/or mSTING in ISRE-luc reporter assay (hSTING and/or mSTING): activate hSTING and/or mSTING
